From patent US20240101573A1, “MACROCYCLIC K-RAS G12C INHIBITOR, PREPARATION METHOD THEREFOR AND USE THEREOF” (Abbisko Therapeutics Co., Ltd., priority 2020, published 2024) come the findings set out here.

In general, IC50 refers to the concentration needed to halve the response being measured.

One assay has as its system H358. The assay can be described thus: Anti-proliferation 2D CTG test (H358). Format: cell-based. The following applies: H358 cells, 1500 cells/well, 5 days incubation with compound, CTG readout. The method, then: (§1) When the cell confluency was 80%, the cells were isolated with 0.25% trypsin. The isolated cells were resuspended in 5 mL of fresh cell culture medium and centrifuged to collect the cells. The number of cells were counted at the same time. Then, the cells were suspended in a culture medium at a moderate concentration. The cells were placed into a 96-well plate with 1500 cells/well for H358 and 500 cells/well for MIAPACA-2. The 96-well plate was placed in an incubator at 37° C. and incubated overnight.
(§2) 2) Day 1: processing of compound
(§3) A 2 mM stock solution was serially diluted at 10 points at a ratio of 1:3. 5× culture medium containing the compound was transferred to the corresponding wells of 96 wells. The final peak concentration of the compound was […], and the final concentration of DMSO was 0.5%. The 96-well plate was placed in the incubator at 37° C. and incubated for 5 days.
(§4) 3) Baseline reading. 4) Day 6: reading of signals
(§5) A detection reagent (CTG) was added at 50 μL/well, and the signals were read in an Envision instrument.
(§6) The percentage of inhibition ([…]) at each compound concentration was calculated based on the signals from the HPE and ZPE control wells contained in each assay plate and the fluorescence signals from individual compound wells. The inhibition rate in the ZPE control wells containing the enzyme and substrate was 0%, and the inhibition rate in the HPE control wells only containing the substrate was […]. By testing the compound in terms of numeric concentration and inhibition percentage, the compound concentration required for […] inhibition (IC50) was determined using a four-parameter logarithmic dose-response equation. The endpoint value (IC50) of the reference compound was evaluated in each experiment as a quality control measure. If the endpoint value was within three times the expected value, the experiment was considered acceptable.

Another assay has as its system MIA PaCa-2. The assay is described as follows: Anti-proliferation 2D CTG test (MIA PaCa-2). Format: cell-based. The following applies: MIAPACA-2 cells, 500 cells/well, 5 days incubation with compound, CTG readout. The method, then: as §1, §2, §3, §4, §5, §6
[1] abbreviates: Homo sapiens, MIA PaCa-2, 120 h.

The structures appear in SMILES notation.

With `C=CC(=O)N1CCN(c2nc(=O)n3c4nc(c(F)cc24)-c2c(F)cccc2OCC(OCC)C(OCC)c2ccnc(C(C)C)c2-3)[C@@H](C)C1` (stereo partly drawn) [Example 60, 2^4-((S)-4-acryloyl-2-methylpiperazin-1-yl)-6,7-diethoxy-2^6,3^6-difluoro-1^2-isopropyl-2^1,2^2-dihydro-4-oxa-2(1,7)-pyrido[2,3-d]pyrimidina-1(3,4)-pyridina-3(1,2)-benzocycloheptane-2^2-one], the IC50 in the assay with H358 (Homo sapiens, NCI-H358, 120 h) was determined as 45 nM; in the assay on MIA PaCa-2 (setting [1]), 38 nM.
Consider `C=CC(=O)N1CCN(c2nc(=O)n3c4nc(c(F)cc24)-c2c(F)cccc2OCC(O)C(OCCF)c2ccnc(C(C)C)c2-3)[C@@H](C)C1` (stereo partly drawn) [Example 24, 2^4-((S)-4-acryloyl-2-methylpiperazin-1-yl)-2^6,3^6-difluoro-7-(2-fluoroethoxy)-6-hydroxy-1^2-isopropyl-2^1,2^2-dihydro-4-oxa-2(1,7)-pyrido[2,3-d]pyrimidina-1(3,4)-pyridina-3(1,2)-benzocycloheptane-2^2-one], for which the IC50 in the assay with H358 (Homo sapiens, NCI-H358, 120 h) was 17 nM; in the assay with MIA PaCa-2 (setting [1]), 8 nM.
Take `C=CC(=O)N1CCN(c2nc(=O)n3c4nc(c(F)cc24)-c2c(F)cccc2OCC(O)C(OC(=O)CC)c2ccnc(C(C)C)c2-3)[C@@H](C)C1` (stereo partly drawn) [Example 6, 2^4-((S)-4-acryloyl-2-methylpiperazin-1-yl)-2^6,3^6-difluoro-6-hydroxy-1^2-isopropyl-2^2-oxo-2^1,2^2-dihydro-4-oxa-2(1,7)-pyrido[2,3-d]pyrimidina-1(3,4)-pyridina-3(1,2)-benzocycloheptane-7-yl propionate]: the IC50 with H358 (Homo sapiens, NCI-H358, 120 h) was determined as 10 nM; with MIA PaCa-2 (setting [1]) it was 10 nM.
In the case of `C=CC(=O)N1C[C@H](C)N(c2nc(=O)n3c4nc(c(F)cc24)-c2c(F)cccc2OCC(OCC)C(O)c2ccnc(C(C)C)c2-3)C[C@H]1C` (stereo partly drawn) [Example 36, (R)-2^4-((2S,5R)-4-acryloyl-2,5-dimethylpiperazin-1-yl)-6-ethoxy-2^6,3^6-difluoro-7-hydroxy-1^2-isopropyl-2^1,2^2-dihydro-4-oxa-2(1,7)-pyrido[2,3-d]pyrimidina-1(3,4)-pyridina-3(1,2)-benzocycloheptane-2^2-one], the IC50 in the assay on H358 (Homo sapiens, NCI-H358, 120 h) was 1 nM; with MIA PaCa-2 (setting [1]), 1 nM.
On to `C=CC(=O)N1C[C@H](C)N(c2nc(=O)n3c4nc(c(F)cc24)-c2c(ccc(Cl)c2F)OCC(O)C(OCC)c2ccnc(C(C)C)c2-3)C[C@H]1C` (stereo partly drawn) [Example 70, 2^4-((2S,5R)-4-acryloyl-2,5-dimethylpiperazin-1-yl)-3^5-chloro-7-ethoxy-2^6,3^6-difluoro-6-hydroxy-1^2-isopropyl-2^1,2^2-dihydro-4-oxa-2(1,7)-pyrido[2,3-d]pyrimidina-1(3,4)-pyridina-3(1,2)-benzocycloheptane-2^2-one], for which the IC50 in the assay with H358 was 16 nM; in the assay with MIA PaCa-2 it was 7 nM.
Consider `C=CC(=O)N1C[C@H](C)N(c2nc(=O)n3c4nc(c(F)cc24)-c2c(ccc(Cl)c2F)OCC(OCC)C(O)c2ccnc(C(C)C)c2-3)C[C@H]1C` (stereo partly drawn) [Example 78, (R)-2^4-((2S,5R)-4-acryloyl-2,5-dimethylpiperazin-1-yl)-3^5-chloro-6-ethoxy-2^6,3^6-difluoro-7-hydroxy-1^2-isopropyl-2^1,2^2-dihydro-4-oxa-2(1,7)-pyrido[2,3-d]pyrimidina-1(3,4)-pyridina-3(1,2)-benzocycloheptane-2^2-one], for which the IC50 came out at 5 nM with H358 and 3 nM in the assay with MIA PaCa-2.
Consider `C=CC(=O)N1CCN(c2nc(=O)n3c4nc(c(F)cc24)-c2c(F)cccc2OCC(=O)C(OC(C)=O)c2ccnc(C(C)C)c2-3)[C@@H](C)C1` (stereo partly drawn) [Example 19, 2^4-((S)-4-acryloyl-2-methylpiperazin-1-yl)-2^6,3^6-difluoro-1^2-isopropyl-2^2,6-dioxo-2^1,2^2-dihydro-4-oxa-2(1,7)-pyrido[2,3-d]pyrimidina-1(3,4)-pyridina-3(1,2)-benzocycloheptane-7-yl acetate], for which the IC50 with H358 (Homo sapiens, NCI-H358, 120 h) came out at 18 nM; in the assay with MIA PaCa-2 (setting [1]), 18 nM.
Consider `C=CC(=O)N1CCN(c2nc(=O)n3c4nc(c(F)cc24)-c2c(F)cccc2OCC(OCCF)C(OCCF)c2ccnc(C(C)C)c2-3)[C@@H](C)C1` (stereo partly drawn) [Example 61, 2^4-((S)-4-acryloyl-2-methylpiperazin-1-yl)-2^6,3^6-difluoro-6,7-di(2-fluoroethoxy)-1^2-isopropyl-2^1,2^2-dihydro-4-oxa-2(1,7)-pyrido[2,3-d]pyrimidina-1(3,4)-pyridina-3(1,2)-benzocycloheptane-2^2-one], for which the IC50 was determined as 38 nM in the assay with H358 (Homo sapiens, NCI-H358, 120 h) and 16 nM in the assay on MIA PaCa-2 (setting [1]).
In the case of `C=CC(=O)N1CCN(c2nc(=O)n3c4nc(c(F)cc24)-c2c(F)cccc2OCC(OCC(F)F)C(O)c2ccnc(C(C)C)c2-3)[C@@H](C)C1` (stereo partly drawn) [Example 33, 2^4-((S)-4-acryloyl-2-methylpiperazin-1-yl)-6-(2,2-difluoroethoxy)-2^6,3^6-difluoro-7-hydroxy-1^2-isopropyl-2^1,2^2-dihydro-4-oxa-2(1,7)-pyrido[2,3-d]pyrimidina-1(3,4)-pyridina-3(1,2)-benzocycloheptane-2^2-one], the IC50 is 42 nM in the assay with H358 and 154 nM in the assay on MIA PaCa-2.
Consider `C=CC(=O)N1CCN(c2nc(=O)n3c4nc(c(F)cc24)-c2c(F)cccc2OCCCc2ccnc(C(C)C)c2-3)[C@@H](C)C1` [Positive compound, reference compound], for which the IC50 in the assay on H358 (Homo sapiens, NCI-H358, 120 h) was 8 nM; with MIA PaCa-2 (setting [1]), 11 nM.
As to `C=CC(=O)N1CCN(c2nc(=O)n3c4nc(c(F)cc24)-c2c(F)cccc2OCC(O)C(OCC)c2ccnc(C(C)C)c2-3)[C@@H](C)C1` (stereo partly drawn) [Example 44, (S)-2^4-((S)-4-acryloyl-2-methylpiperazin-1-yl)-7-ethoxy-2^6,3^6-difluoro-6-hydroxy-1^2-isopropyl-2^1,2^2-dihydro-4-oxa-2(1,7)-pyrido[2,3-d]pyrimidina-1(3,4)-pyridina-3(1,2)-benzocycloheptane-2^2-one], the IC50 in the assay with H358 was determined as 250 nM; in the assay with MIA PaCa-2, 125 nM.
`C=CC(=O)N1CCN(c2nc(=O)n3c4nc(c(F)cc24)-c2c(F)cccc2OCC(O)C(OCCF)c2ccnc(C(C)C)c2-3)[C@@H](C)C1` (stereo partly drawn) [Example 37, (R)-2^4-((S)-4-acryloyl-2-methylpiperazin-1-yl)-2^6,3^6-difluoro-7-(2-fluoroethoxy)-6-hydroxy-1^2-isopropyl-2^1,2^2-dihydro-4-oxa-2(1,7)-pyrido[2,3-d]pyrimidina-1(3,4)-pyridina-3(1,2)-benzocycloheptane-2^2-one]: the values for the IC50 in the assay on H358 and with MIA PaCa-2 were 14 nM and 5 nM, respectively.
As for `C=CC(=O)N1CCN(c2nc(=O)n3c4nc(c(F)cc24)-c2c(F)cccc2OCC(O)C(O)c2ccnc(C(C)C)c2-3)[C@@H](C)C1` (stereo partly drawn) [Example 1, 2^4-((S)-4-acryloyl-2-methylpiperazin-1-yl)-2^6,3^6-difluoro-6,7-dihydroxy-1^2-isopropyl-2^1,2^2-dihydro-4-oxa-2(1,7)-pyrido[2,3-d]pyrimidina-1(3,4)-pyridina-3(1,2)-benzocycloheptane-2^2-one], the IC50 in the assay with H358 was 13 nM; in the assay with MIA PaCa-2, 10 nM.
On to `C=CC(=O)N1CCN(c2nc(=O)n3c4nc(c(F)cc24)-c2c(F)cccc2OCC(O)C(OCC2CC2)c2ccnc(C(C)C)c2-3)[C@@H](C)C1` (stereo partly drawn) [Example 47, (R)-2^4-((S)-4-acryloyl-2-methylpiperazin-1-yl)-7-(cyclopropylmethoxy)-2^6,3^6-difluoro-6-hydroxy-1^2-isopropyl-2^1,2^2-dihydro-4-oxa-2(1,7)-pyrido[2,3-d]pyrimidina-1(3,4)-pyridina-3(1,2)-benzocycloheptane-2^2-one], for which the IC50 was found to be 9 nM in the assay on H358 (Homo sapiens, NCI-H358, 120 h) and 5 nM in the assay with MIA PaCa-2 (setting [1]).
In the case of `C=CC(=O)N1C[C@H](C)N(c2nc(=O)n3c4nc(c(F)cc24)-c2c(ccc(Cl)c2F)OCC(O)C(OCC)c2ccnc(C(C)C)c2-3)C[C@H]1C` (stereo partly drawn) [Example 77, (S)-(S)-2^4-((2S,5R)-4-acryloyl-2,5-dimethylpiperazin-1-yl)-3^5-chloro-7-ethoxy-2^6,3^6-difluoro-6-hydroxy-1^2-isopropyl-2^1,2^2-dihydro-4-oxa-2(1,7)-pyrido[2,3-d]pyrimidina-1(3,4)-pyridina-3(1,2)-benzocycloheptane-2^2-one], the IC50 in the assay on H358 was determined as 523 nM.
The same measure, in the same setting: with `C=CC(=O)N1CCN(c2nc(=O)n3c4nc(c(F)cc24)-c2c(ccc(Cl)c2F)OCC(O)C(OCC)c2ccnc(C(C)C)c2-3)[C@@H](C)C1` (stereo partly drawn) [Example 73, (S)-2^4-((S)-4-acryloyl-2-methylpiperazin-1-yl)-3^5-chloro-7-ethoxy-2^6,3^6-difluoro-6-hydroxy-1^2-isopropyl-2^1,2^2-dihydro-4-oxa-2(1,7)-pyrido[2,3-d]pyrimidina-1(3,4)-pyridina-3(1,2)-benzocycloheptane-2^2-one] the figure was 668 nM.
